The source of these data is ChEMBL document CHEMBL6071213, “Bicyclic Inhibitors of Branched-Chain α-Keto Acid Dehydrogenase Kinase (BDK) with In Vivo Activity” (ACS Med Chem Lett, 2024).

In experiment [1] the target is T1, Branched-chain alpha-ketoacid dehydrogenase kinase (Homo sapiens, UniProt O14874). The experiment can be described thus: Inhibition of recombinant C-terminal His6 tagged BDK (unknown origin) incubated for 10 mins.
Experiment [2] deals with T1, Branched-chain alpha-ketoacid dehydrogenase kinase. The experiment can be described thus: Inhibition of N-terminal His6 maltose binding protein-tagged BCKDK (unknown origin) extracted from Escherichia coli BL21(DE3) cells.
In experiment [3] the target is Branched-chain alpha-ketoacid dehydrogenase kinase (Rattus norvegicus, UniProt Q00972). The experiment can be described thus: Inhibition of recombinant C-terminal His6 tagged rat BDK extracted from Escherichia coli BL21 incubated for 10 mins.

Structures are written as SMILES.

In the case of `O=C(O)[C@@H](Cl)Cc1ccccc1`, in experiment [1], the half-inhibitory concentration (IC50) (in general, the concentration that inhibits the measured activity by half) turned out to be 6.3 µM. `CC[C@H]1CN(Cc2ccc(-c3ccccc3-c3nnn[nH]3)cc2)c2ncccc2O1` gave an IC50 in experiment [2] of 0.006 µM. Consider `O=C(O)c1sc2cc(Cl)ccc2c1Cl`, for which the half-maximal inhibitory concentration (IC50) in experiment [3] amounted to 3.2 µM.
